Test results from patent publication US20240059747A1, “UBIQUITIN VARIANT WITH HIGH AFFINITY FOR BINDING 53BP1 REDUCES THE AMOUNT OF AAV NEEDED TO ACHIEVE HIGH RATES OF HDR” (Integrated DNA Technologies, Inc., priority 2022, published 2024).

What was measured:
HEK293 cells = assay: percent HDR by EcoR1 cleavage assay, Cas9 RNP nucleofection with AAV donor, HEK293 cells; format: cell-based; settings: for dose dependence of HDR benefit: AAV donor at MOI 20,000, doses up to 200 μM
Protocol: FIG. 1C depicts an exemplary heatmap showing the percent HDR at SERPINC1 in K562 cells with and without 50 uM CM1tf. […] The heatmaps show the percent HDR measured by EcoR1 cleavage assay with and without the use of CM1tf. Cas9 RNP (2 μM) was delivered with and without CM1tf into cells by Lonza nucleofection using 4 μM Alt-R Cas9 Electroporation Enhancer. AAV donor containing an EcoR1 cut site insert with 500 bp homology arms was added at a range of multiplicity of infection (MOIs) to cells for 24 hours following RNP delivery.
FIG. 2B depicts an exemplary heatmap showing the percent HDR at SERPINC1 in HEK293 cells with no enhancer, CM1tf, V2, or CM1tf+V2. […] Cas9 RNP was co-delivered with and without CM1tf into cells by Lonza nucleofection with 2 μM Cas9 RNP, 4 μM Alt-R Cas9 Electroporation Enhancer, and 0 or 25 uM CM1tf. AAV donor containing an EcoR1 cut site insert with 500 bp homology arms was added at a range of MOIs to cells for 24 hours following RNP delivery. V2 enhancer was added to media at a 1 uM final concentration for 24 hours following nucleofection.
The heatmaps show the percent HDR at STAT3 measured by EcoR1 cleavage assay with or without CM1tf. Cas9 RNP was co-delivered with and without CM1tf into cells by Lonza nucleofection with 2 μM Cas9 RNP, 4 μM Alt-R Cas9 Electroporation Enhancer, and 0 or 25 uM CM1tf. AAV donor containing 500 base pair (bp), 300 bp, or 100 bp homology arms was added at a range of MOIs to cells for 24 hours following RNP delivery.
Cas9 RNP was co-delivered with and without CM1tf into cells by Lonza nucleofection with 2 μM Cas9 RNP, 4 μM Alt-R Cas9 Electroporation Enhancer, and range of CM1tf concentrations from 200 μM to 6.25 μM. AAV donor containing an EcoR1 cut site insert with 500 bp homology arms was added at an MOI of 20,000 to cells for 24 hours following RNP delivery.
We developed at tag-free version of CM1 (CM1tf) and tested its ability to enhance HDR in cell lines using AAV donor (see Table 1). AAV-DJ, a synthetic AAV serotype most closely related to AAV-2 that is a chimera of type 2/type 8/ and type 9, was chosen for testing due to its high transduction efficiency in vitro for a broad range of cell types. The dose of CM1tf was held constant while a range of MOIs was used for the AAV donor. The AAV donor was constructed such that a 6 base pair insert consisting of an EcoR1 cut site (GAATTC) was flanked by 500 base pairs of homology arm matching the genomic sequence on either side of the target cut site. Briefly, Cas9 V3 protein (IDT) and Alt-R sgRNA (IDT) were mixed at a 1:1.2 ratio, incubated for 10 min, then Alt-R Cas9 electroporation enhancer (EE) (IDT), 1× PBS (Gibco), and CM1tf, diluted in 1× PBS, were added. HEK293 or K562 cells were washed and resuspended in SF buffer for Lonza Nucleofection and added to the RNP+DNA mix such that the final concentration of Cas9 RNP was 2 μM, EE was 4 μM, and CM1tf was 25 μM (HEK293 cells) or 50 μM (K562 cells). Cells plus RNP+DNA were electroporated using program DS-150 (HEK293 cells) or FF-120 (K562 cells) using the Lonza nucleofector system. Cells were then plated in 96 well plates at 20,000 cells/well and AAV was added to the wells at a range of MOI from 0 (no virus) to 160,000, with MOI being calculated as viral genomes (vg) per cell with vg calculated using qPCR. Cells were recovered and plated with serum free media, AAV was added, then serum containing media was added after four hours. Genomic DNA was isolated 48 hours after RNP delivery using QuickExtract (Lucigen).
In order to optimize HDR, it is often desirable to use a combination of HDR enhancers that work by different mechanisms to further boost HDR rates beyond what can be achieved by any single enhancer alone.

K562 cells = assay: percent HDR by EcoR1 cleavage assay, Cas9 RNP nucleofection with AAV donor, K562 cells; format: cell-based; settings: 50 μM CM1tf, SERPINC1, AAV donor MOI range, FIG. 1C
Protocol: FIG. 1C depicts an exemplary heatmap showing the percent HDR at SERPINC1 in K562 cells with and without 50 uM CM1tf. In FIG. 1A-C, the ubiquitin variant CM1tf boosts HDR when delivered with Cas9 RNP when an AAV vector is used to deliver the donor template. The heatmaps show the percent HDR measured by EcoR1 cleavage assay with and without the use of CM1tf. Cas9 RNP (2 μM) was delivered with and without CM1tf into cells by Lonza nucleofection using 4 μM Alt-R Cas9 Electroporation Enhancer. AAV donor containing an EcoR1 cut site insert with 500 bp homology arms was added at a range of multiplicity of infection (MOIs) to cells for 24 hours following RNP delivery.
We developed at tag-free version of CM1 (CM1tf) and tested its ability to enhance HDR in cell lines using AAV donor (see Table 1). AAV-DJ, a synthetic AAV serotype most closely related to AAV-2 that is a chimera of type 2/type 8/ and type 9, was chosen for testing due to its high transduction efficiency in vitro for a broad range of cell types. The dose of CM1tf was held constant while a range of MOIs was used for the AAV donor. […] Cells were then plated in 96 well plates at 20,000 cells/well and AAV was added to the wells at a range of MOI from 0 (no virus) to 160,000, with MOI being calculated as viral genomes (vg) per cell with vg calculated using qPCR. […]

HDR [1] = settings: ssDNA donor; previous testing; cited from earlier work
53BP1 foci = settings: introduced into cells; cited from earlier work
HDR [2] = settings: plasmid, AAV mediated gene delivery or mRNA delivery; double-stranded and single-stranded DNA donors; cited from earlier work

Substance | improvement in HDR rates, single enhancers and combination (HEK293 cells; 25 uM CM1tf, 1 μM V2 enhancer in media for 24 hours, AAV donor MOI range, HPRT1 and SERPINC1, FIG. 2) | boost of HDR rates (HEK293 cells; 25 μM CM1tf, AAV-DJ donor with 500 bp homology arms, MOI 0 to 160,000, HPRT1 and SERPINC1, FIG. 1A-B) | HDR boost compared with i53 (HEK293 cells; AAV donor at MOI 20,000, doses 6.25 to 200 μM, FIG. 4) | dose dependence of HDR benefit (HEK293 cells; FIG. 4) | less AAV needed to achieve the same level of editing as without enhancer (HEK293 cells; HEK293 cells, 25 μM CM1tf, AAV donor MOI range) | boost of HDR (K562 cells) | benefit to HDR as a function of dose (HDR [1]) | optimal concentration for HDR benefit (HDR [1]) [µM] | formation of ionizing radiation induced 53BP1 foci (53BP1 foci) | rates of HDR (HDR [2])
CM1tf: tag-free version of ubiquitin variant CM1, SEQ ID NO: 3; K6R, T7M, T12M, T14E, K33H, A46Q, S65P, L67K, H68M relative to i53 | approximately equivalent improvement in HDR rates | dramatically boosted HDR rates | continued to outperform i53 | slightly larger benefit to HDR with increasing dose | approximately four-fold | boosts HDR |  |  |  | 
i53: ubiquitin variant inhibitor of 53BP1 (Canny et al.), SEQ ID NO: 1 |  |  |  | large performance increase going from 100 μM to 200 μM |  |  | decrease in benefit at 200 μM | 100 to 150 | inhibited the formation ionizing radiation induced 53BP1 foci | improve the rates of HDR
